Laboratory results from BigSolDB 2.1.

Nc1cccc2ccncc12
solubility (mole fraction)
Details	in DMF	in acetone	in acetonitrile	in ethanol	in ethylene glycol	in isopropanol	in methanol	in n-propanol	in propylene glycol	in water
278.15 K	0.00564	0.00309	0.00458	0.00135	0.000113	0.00283	0.000354	0.00359	0.000176	3.46e-05
283.15 K	0.00693	0.00371	0.00539	0.00161	0.000132	0.00344	0.000411	0.0042	0.000211	4e-05
288.15 K	0.00832	0.00439	0.00651	0.00191	0.000156	0.00401	0.000483	0.00497	0.000254	4.6e-05
293.15 K	0.01	0.00532	0.00789	0.0022	0.000183	0.00477	0.000559	0.00593	0.000304	5.45e-05
298.15 K	0.0119	0.00636	0.00939	0.00261	0.00022	0.00566	0.000664	0.007	0.000366	6.21e-05
303.15 K	0.0141	0.00752	0.0111	0.00308	0.000261	0.00664	0.000773	0.00831	0.000433	7.2e-05
308.15 K	0.0167	0.00896	0.0131	0.00365	0.000313	0.00784	0.000919	0.00984	0.000516	8.42e-05
313.15 K	0.0196	0.0105	0.0156	0.0043	0.000367	0.00934	0.00107	0.0115	0.000608	9.8e-05
318.15 K	0.023	0.0122	0.0182	0.00508	0.000429	0.0109	0.00128	0.0135	0.000718	0.000113
323.15 K	0.0267	0.0143	0.0219	0.00602	0.000505	0.0128	0.00151	0.0158	0.00085	0.000132
